Experimental data from patent publication US20140243375A1, “ISOXAZOLINE DERIVATIVES AS INSECTICIDAL COMPOUNDS” (Syngenta Participations AG, priority 2011, published 2014).

Tests used:
Assay type in all cases: in vivo
Plutella xylostella = Plutella xylostella (diamond back moth) L2 larvae test on artificial diet; details: 144 h, application rate 200 ppm (concentration in well 18 ppm), larval mortality and growth regulation after 6 days
Procedure: (§1) This Example illustrates the pesticidal/insecticidal properties of compounds of formula (I). Tests were performed as follows: Plutella xylostella (Diamond Back Moth): 24-well microtiter plate (MTP) with artificial diet was treated with test solutions at an application rate of 200 ppm (concentration in well 18 ppm) by pipetting. After drying, the MTP's were infested with L2 larvae (7-12 per well). After an incubation period of 6 days, samples were checked for larval mortality and growth regulation.

Thrips tabaci = Thrips tabaci (onion thrips) sunflower leaf disc spray test; details: foliar, 168 h, application rate 200 ppm, sprayed sunflower leaf discs, mixed ages, mortality after 7 days
Procedure: This Example illustrates the pesticidal/insecticidal properties of compounds of formula (I). Tests were performed as follows: Thrips Tabaci (Onion Thrips): Sunflower leaf discs were placed on agar in a 24-well microtiter plate and sprayed with test solutions at an application rate of 200 ppm. After drying, the leaf discs were infested with a thrips population of mixed ages. After an incubation period of 7 days, samples were checked for mortality.

Tetranychus urticae = Tetranychus urticae (two-spotted spider mite) bean leaf disc spray test; details: foliar, 192 h, application rate 200 ppm, sprayed bean leaf discs, mixed ages, egg, larval and adult mortality 8 days later
Procedure: This Example illustrates the pesticidal/insecticidal properties of compounds of formula (I). Tests were performed as follows: Tetranychus urticae (Two-Spotted Spider Mite): Bean leaf discs on agar in 24-well microtiter plates were sprayed with test solutions at an application rate of 200 ppm. After drying, the leaf discs are infested with mite populations of mixed ages. 8 days later, discs are checked for egg mortality, larval mortality, and adult mortality.

Heliothis virescens = Heliothis virescens (tobacco budworm) egg test on artificial diet; details: 96 h, application rate 200 ppm (concentration in well 18 ppm), eggs on artificial diet, egg mortality, larval mortality, growth regulation after 4 days
Procedure: This Example illustrates the pesticidal/insecticidal properties of compounds of formula (I). Tests were performed as follows: Heliothis virescens (Tobacco Budworm): Eggs (0-24 h old) were placed in 24-well microtiter plate on artificial diet and treated with test solutions at an application rate of 200 ppm (concentration in well 18 ppm) by pipetting. After an incubation period of 4 days, samples were checked for egg mortality, larval mortality, and growth regulation.

Diabrotica balteata = Diabrotica balteata (corn root worm) L2 larvae test on artificial diet; details: 120 h, application rate 200 ppm (concentration in well 18 ppm), larval mortality and growth regulation after 5 days
Procedure: as §1, with “Diabrotica balteata (Corn Root Worm): A” for “Plutella xylostella (Diamond Back Moth):”, “(6-10” for “(7-12”, “5” for “6”

Spodoptera littoralis = Spodoptera littoralis (Egyptian cotton leafworm) cotton leaf disc spray test; details: foliar, 72 h, application rate 200 ppm, sprayed cotton leaf discs, mortality, feeding behavior, growth regulation 3 days after treatment
Procedure: This Example illustrates the pesticidal/insecticidal properties of compounds of formula (I). Tests were performed as follows: Spodoptera littoralis (Egyptian Cotton Leafworm): Cotton leaf discs were placed on agar in a 24-well microtiter plate and sprayed with test solutions at an application rate of 200 ppm. After drying, the leaf discs were infested with […]. The samples were checked for mortality, feeding behavior, and growth regulation 3 days after treatment (DAT).

Measured: pest or weed control at 200 ppm

Cc1cc(C2=NOC(c3cc(Cl)cc(Cl)c3)(C(F)(F)F)C2)ccc1C(=O)NC1CON(C)C1=O (stereo not drawn) [Compound A01]
≥ 80%: all assays above

CCN1OCC(NC(=O)c2ccc(C3=NOC(c4cc(Cl)c(Cl)c(Cl)c4)(C(F)(F)F)C3)cc2C)C1=O (stereo not drawn) [Compound A02]
≥ 80%: all assays above

CCN1OCC(NC(=O)c2ccc(C3=NOC(c4cc(Cl)c(F)c(Cl)c4)(C(F)(F)F)C3)cc2C)C1=O (stereo not drawn) [Compound A04]
≥ 80%: all assays above

CCN1OCC(NC(=O)c2ccc(C3=NOC(c4cc(Cl)cc(Cl)c4)(C(F)(F)F)C3)cc2C)C1=O (stereo not drawn) [Compound A07]
≥ 80%: all assays above

CCN1OCC(NC(=O)c2ccc(C3=NOC(c4cc(Cl)cc(Br)c4)(C(F)(F)F)C3)cc2C)C1=O (stereo not drawn) [Compound A10]
≥ 80%: all assays above

CCN1OCC(NC(=O)c2ccc(C3=NOC(c4cc(Cl)cc(C(F)(F)F)c4)(C(F)(F)F)C3)cc2C)C1=O (stereo not drawn) [Compound A12]
≥ 80%: all assays above

Cc1cc(C2=NOC(c3cc(Cl)cc(Cl)c3)(C(F)(F)F)C2)ccc1C(=O)NC1CON(CC(F)F)C1=O (stereo not drawn) [Compound A15]
≥ 80%: all assays above

Cc1cc(C2=NOC(c3cc(Cl)c(Cl)c(Cl)c3)(C(F)(F)F)C2)ccc1C(=O)NC1CON(CC(F)(F)F)C1=O (stereo not drawn) [Compound A16]
≥ 80%: all assays above

Cc1cc(C2=NOC(c3cc(Cl)c(F)c(Cl)c3)(C(F)(F)F)C2)ccc1C(=O)NC1CON(CC(F)(F)F)C1=O (stereo not drawn) [Compound A20]
≥ 80%: all assays above

Cc1cc(C2=NOC(c3cc(Cl)cc(Cl)c3)(C(F)(F)F)C2)ccc1C(=O)NC1CON(CC(F)(F)F)C1=O (stereo not drawn) [Compound A22]
≥ 80%: all assays above

Cc1cc(C2=NOC(c3cc(Cl)cc(Br)c3)(C(F)(F)F)C2)ccc1C(=O)NC1CON(CC(F)(F)F)C1=O (stereo not drawn) [Compound A25]
≥ 80%: all assays above
